Reference: patent publication US5177075A, “Substituted dihydroisoquinolinones and related compounds as potentiators of the lethal effects of radiation and certain chemotherapeutic agents; selected compounds, analogs and process” (priority 1991, dated 1993)
pIC50: −log10 of the molar value. Entries after “also recorded” stand apart in the source; their conditions may differ. Like-named read-outs stand apart in the source and are kept apart here.

Columns and labels:
V79 cells = experiment: In vitro radiosensitizing activity at 37°: shoulder modifying effects (reduction in Dq); assay type: cell-based; settings: for Shoulder Modification (% Reduction in DQ): hypoxic V79 cells, class symbols
Description: The shoulder region represents the inherent repair capabilities of a given cell line. […] To determine the hypoxic x-ray dose response, cells are rendered hypoxic four hours prior to the addition of the test compound by placing them in a 37° C. incubator within an anaerobic glove chamber (Forma). […] Drug is added (0.1 ml into 2 ml media in petri dish) within the anaerobic chamber and drug treatment is at the highest nontoxic dose for one hour at 37°. The oxic x-ray dose response is determined in a similar manner except that all manipulations are carried out in air. […] Cytotoxicity controls (drug only, no irradiation) are included as well as oxic and hypoxic untreated controls (irradiation only, no drug). Immediately following irradiation, cells are rinsed twice with 2 ml fresh media prior to the addition of 5 ml of fresh media. The cells are then incubated at 37° C. After six days, dishes are stained with crystal violet and colonies of 50 or more cells are counted to determine percent surviving cells versus x-ray dose. […] This is expressed by percent reduction in Dq where Dq is defined as the dose at the intersection of the regression line for the logarithmic portion of the survival curve with the 100% survival level. This is taken to represent the width of the shoulder region of the survival curve.

[1] = target: T1, Poly(ADP-ribose) synthetase (Bos taurus, UniProt P18493); settings: cited from earlier work
T1 construct: Poly (ADP-ribose) synthetase from calf thymus; from tissue; host or cells: calf thymus
T1 sequence (P18493 whole entry): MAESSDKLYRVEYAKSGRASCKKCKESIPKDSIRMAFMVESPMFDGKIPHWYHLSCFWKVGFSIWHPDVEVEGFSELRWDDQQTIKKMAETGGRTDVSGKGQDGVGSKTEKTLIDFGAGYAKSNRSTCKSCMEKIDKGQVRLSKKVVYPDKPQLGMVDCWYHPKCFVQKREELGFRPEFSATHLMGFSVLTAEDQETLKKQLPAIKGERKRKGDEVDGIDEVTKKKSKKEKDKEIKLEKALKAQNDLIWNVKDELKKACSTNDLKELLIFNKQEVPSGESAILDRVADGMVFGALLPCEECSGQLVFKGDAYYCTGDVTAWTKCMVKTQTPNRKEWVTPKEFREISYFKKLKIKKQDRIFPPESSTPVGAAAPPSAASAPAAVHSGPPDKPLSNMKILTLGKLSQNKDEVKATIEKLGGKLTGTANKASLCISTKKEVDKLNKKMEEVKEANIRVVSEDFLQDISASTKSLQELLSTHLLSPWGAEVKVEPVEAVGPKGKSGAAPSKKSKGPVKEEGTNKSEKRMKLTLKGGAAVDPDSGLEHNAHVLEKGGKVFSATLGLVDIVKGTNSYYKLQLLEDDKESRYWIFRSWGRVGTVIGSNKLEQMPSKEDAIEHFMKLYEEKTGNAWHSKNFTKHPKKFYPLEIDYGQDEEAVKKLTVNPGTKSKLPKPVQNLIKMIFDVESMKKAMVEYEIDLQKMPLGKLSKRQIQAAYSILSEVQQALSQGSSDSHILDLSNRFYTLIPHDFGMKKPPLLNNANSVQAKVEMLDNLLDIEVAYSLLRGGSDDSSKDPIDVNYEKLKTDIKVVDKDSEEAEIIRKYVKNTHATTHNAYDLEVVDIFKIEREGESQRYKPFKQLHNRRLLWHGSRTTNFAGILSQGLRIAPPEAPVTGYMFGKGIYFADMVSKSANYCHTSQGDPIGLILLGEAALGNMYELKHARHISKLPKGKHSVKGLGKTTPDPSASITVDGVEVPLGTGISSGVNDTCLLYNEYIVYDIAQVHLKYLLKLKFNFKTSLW

[2] = system: cells exposed to radiation; settings: cited from earlier work
[3] = target: T1, Poly(ADP-ribose) synthetase; experiment: Inhibition of Poly(ADP-ribose) synthetase; assay type: biochemical, calf
Description: The enzyme assay is performed by placing the following in small glass tubes kept at 4°: 100 μl of buffer consisting of 0.5M Tris-HCl pH 8.0, 50 mM MgCl2, and 5 mM dithiothreitol; 50 μl of 1 mM [^3 H]nicotinamide adenine dinucleotide having a specific activity of 15 μCi/μmol; 100 μl of calf thymus DNA (0.3 mg/ml in water); 50 μl of calf thymus histone (Sigma, Type IIA, 0.5 mg/ml); 50 μl of inhibitor or inhibitor solvent; 150 μl of enzyme. The components are thoroughly mixed and warmed to 30° C. in a water bath. After 15 minutes the reaction is stopped by adding 2 ml of ice cold 15% trichloroacetic acid and the tubes are placed on ice for 15 minutes. The precipitate is collected on glass fiber filters and washed five times with ice cold 15% trichloroacetic acid. The filters were dried and radioactivity determined in a liquid scintillation counter.

L1210 cells = experiment: Inhibition of the repair of radiation-induced DNA damage as assessed by alkaline elution; assay type: cell-based
Description: Inhibition of the Repair of Radiation-Induced DNA Damage as Assessed by Alkaline Elution The basic alkaline elution assay is carried out according to the procedure of K. W. Kohn, […]. Erickson, and L. A. Zwelling in DNA Repair: A Laboratory Manual of Research Procedures (eds. E. C. Freidburg and […]) with slight modifications. Briefly, suspension cultures of exponentially growing L1210 cells (total of 4×10^6 cells) are labeled with 0.02 μCi/ml of [^14 C] thymidine plus 1 nmol/ml of unlabeled thymidine for 24 hours prior to use. L1210 cells used as an internal standard are grown in media supplemented with 0.1 μCi/ml of [^3 H]thymidine and 1 nmol/ml unlabeled thymidine. For the elution protocol cells are removed from the culture flasks, centrifuged, and resuspended in fresh media. Drug treatment for experimental cells is for one hour at 37°. After the treatment period control and drug-treated cells are given a dose of 10 Gy of x-rays and incubated at 37° C. for 10 minutes to allow for repair. Samples consisting of 5×10^5 cells contained in 5 ml of ice cold PBS are deposited directly on 25 mm polycarbonate filters (2 micron pore size). The cells are washed with 5 ml of cold PBS, then lysed by the addition of 5 ml of lysis solution (0.2% SDS, 0.25M tetrasodium EDTA pH 9.7). All procedures commencing at the time of lysis are carried out in the dark. Subsequent to lysis samples are treated with 2 ml of lysis solution containing proteinase-K (0.5 mg/ml) for one hour. The filters are then eluted with tetrapropyl ammonium hydroxide/0.025M EDTA (free acid form)/0.1% SDS, pH 12.1, at a constant flow rate of 0.037 ml/min. Fractions of 2 ml are collected in scintillation vials. […] To each fraction collected and the filter solution 15 ml of modified Ready-Gel scintillation fluid containing 0.7% acetic acid is added. The frequency of single-stranded DNA breakage was calculated as described by Kohn, et al. The data is corrected for the number of single-strand breaks in the […] samples (~20%).

KHT fibrosarcoma tumors = experiment: In vivo assay for radiosensitization activity; set-up: species or system hybrid mice (B6C3F1); settings: for In Vivo Radiosensitizing Activity: KHT tumors in mice, relative to misonidazole
Description: In Vivo Assay for Radiosensitization Activity
For this assay KHT fibrosarcoma tumors in hybrid mice (B6C3F1) weighing 20-25 g are used. The mice are randomized and implanted SC with the appropriate tumor brei on Day 0 (one implant/mouse). Samples from each donor tumor and/or from the final brei are incubated in thioglycolate media as a check for gross bacterial contamination. On Day 8 tumors are measured in two dimensions with calipers and animals with tumor masses in the range of 500 to 700 mg are selected for the assay. At this point the tumors contain approximately 20% hypoxic cells.
The test agents are dissolved in any of several vehicles at a fixed injection dose equal to 90-100% of the maximum tolerated dose. Additional suitable controls of test compound (no irradiation) and vehicle-injected and irradiated mice are also included. Mice are irradiated at a dose of 1700 RADs at various intervals both prior to and after intraperitoneal administration of the test agents.
By using these intervals, an indication of both the optimum time to irradiate and the degree of sensitization are obtained. Irradiation of the KHT tumors is by whole body irradiation of animals in movement restricting jigs at different total exposures as indicated. The x-ray source is a Phillips 320 KV instrument with a half-value thickness of 2.0 mm copper and a target to source distance of 17 inches, with a delivery rate of 2.0 Gy/minute. Animals are monitored for signs of acute toxicity after treatment.
After incubation for 12-16 days at 37° and staining, the colonies are counted. The data are expressed as % control versus time.

tumors = settings: cited from earlier work
hypoxic tumor cells = settings: cited from earlier work
[4] = cited from earlier work; for peripheral neuropathy and convulsions: mice
[5] = 30° C., 15 minutes, [3H]NAD, read-out: IC50
[6] = L1210 cells, 10 Gy x-rays, class symbols

NC(=O)c1cccc(N)c1 [3-aminobenzamide]
reduction of Dq (V79 cells): does not reduce Dq
inhibition of poly(ADP-ribose)synthetase [1]: previously known best inhibitor of poly(ADP-ribose)synthetase
killing of cells by DNA-damaging agents ([2]; certain cell lines): enhanced killing of these cells by the damaging agents
inhibition of postirradiation repair [2]: inhibit this postirradiation repair process, thereby sensitizing cells to the lethal effects of radiation; also recorded: inhibited

Oc1cccc2c(O)nccc12 [Example I, 1,5-Dihydroxyisoquinoline]
pIC50 [3, 5]: 6.85
Shoulder Modification (% Reduction in DQ) (V79 cells): - (1-14%)
Frequency of Unrepaired Strand Breaks (L1210 cells; [6]): + (101-200)
In Vivo Radiosensitizing Activity (KHT fibrosarcoma tumors): +

O=C1NCCc2c(O)cccc21 [Example II, 3,4-Dihydro-5-hydroxy-1(2H)-isoquinolinone]
pIC50 [3, 5]: 7.00
Shoulder Modification (% Reduction in DQ) (V79 cells): + (15-29%)
Frequency of Unrepaired Strand Breaks (L1210 cells; [6]): ++ (201-300)
In Vivo Radiosensitizing Activity (KHT fibrosarcoma tumors): +

O=C1NCCc2c(OCC(O)CN3CCCCC3)cccc21 (stereo not shown) [Example IV, 3,4-Dihydro-5-[2-hydroxy-3-(1-piperidinyl)propoxy]-1(2H)-isoquinolinone]
pIC50 [3, 5]: 6.49
Shoulder Modification (% Reduction in DQ) (V79 cells): +++ (≥45%)

Nc1cccc2c(=O)[nH]ccc12 [Example VIII, 5-Amino-1(2H)-isoquinolinone]
pIC50 [3, 5]: 6.62
Shoulder Modification (% Reduction in DQ) (V79 cells): - (1-14%)

Cc1cccc2c1CCNC2=O [Example XII, 3,4-Dihydro-5-methyl-1(2H)-isoquinolinone]
pIC50 [3]: 6.80
Shoulder Modification (% Reduction in DQ) (V79 cells): ++ (30-44%)
% Reduction in Dq (37°) (V79 cells; numeric): 30%
Frequency of Unrepaired Strand Breaks (L1210 cells; [6]): ++++ (401-500)
Frequency of Unrepaired Strand Breaks (L1210 cells; numeric): 470 Rad. Eq.
In Vivo Radiosensitizing Activity (KHT fibrosarcoma tumors): +
Enhancement Ratio (in vivo) (KHT fibrosarcoma tumors; in vivo): 1.4-1.5
Optimum time preirradiation (KHT fibrosarcoma tumors; time of administration before irradiation): 2 to 3 h

Cl.Nc1cccc2c1CCNC2=O [IX, 5-Amino-3,4-dihydro-1(2H)-isoquinolinone, monohydrochloride]
pIC50 [3, 5]: 6.39
Shoulder Modification (% Reduction in DQ) (V79 cells): - (1-14%)
Frequency of Unrepaired Strand Breaks (L1210 cells; [6]): +++ (301-400)

CNC=O [N-methylformamide]
sensitization of tumors to radiation (tumors): sensitize tumors to the lethal effects of radiation

CCc1cccc2c1CCNC2=O [XV, 5-Ethyl-3,4-dihydro-1(2H)-isoquinolinone]
pIC50 [3, 5]: 6.00
Shoulder Modification (% Reduction in DQ) (V79 cells): - (1-14%)
Frequency of Unrepaired Strand Breaks (L1210 cells; [6]): + (101-200)

O=C1NCCc2c(OCCCCN3CCCCC3)cccc21 [XXXIV, 3,4-Dihydro-5-[4-(1-piperidinyl)butoxy]-1(2H)-isoquinolinone]
pIC50 [3]: 6.10

O=C1NCCc2c(OCC(O)COc3ccccc3)cccc21 (stereo not shown) [XXXIX, 3,4-Dihydro-5-(2-hydroxy-3-phenoxypropoxy)-1(2H)-isoquinolinone]
pIC50 [3, 5]: 6.19

CCOc1cccc2c1CCNC2=O [XXXV, 5-Ethoxy-3,4-dihydro-1(2H)-isoquinolinone]
pIC50 [3, 5]: 5.59

CCCOc1cccc2c1CCNC2=O [XXXVI, 3,4-Dihydro-5-propoxy-1(2H)-isoquinolinone]
pIC50 [3, 5]: 6.96

CCCCOc1cccc2c1CCNC2=O [XXXVII, 5-Butoxy-3,4-dihydro-1(2H)-isoquinolinone]
pIC50 [3, 5]: 5.22

COCC(O)COc1cccc2c1CCNC2=O (stereo not shown) [XXXVIII, 3,4-Dihydro-5-(2-hydroxy-3-methoxypropoxy)-1(2H)-isoquinolinone]
pIC50 [3, 5]: 5.82

CCN(CC)CC(O)COc1cccc2c1CCNC2=O (stereo not shown) [XXX]
pIC50 [3, 5]: 6.00

Cc1ncc([N+](=O)[O-])n1CCO [metronidazole, 2-methyl-5-nitro-1H-imidazole-1-ethanol]
radiosensitizing activity (hypoxic tumor cells): effective as radiosensitizers for hypoxic cells in vivo; also recorded: active both in vitro and in vivo as a radiosensitizer
peripheral neuropathy and convulsions [4]: peripheral neuropathy effects and convolusions in mice
CNS side effects ([4]; mouse, in vivo): serious adverse CNS side effects
CNS toxicity, use in humans ([4]; mouse, in vivo): limiting factor for their use in humans

COCC(O)Cn1ccnc1[N+](=O)[O-] (stereo not drawn) [misonidazole, α-(methoxymethyl)-2-nitro-1H-imidazole-1-ethanol]
radiosensitizing activity (hypoxic tumor cells): of value as a radio-sensitizer for hypoxic tumor cells; also recorded: effective as radiosensitizers for hypoxic cells in vivo
CNS side effects ([4]; administered to mice): serious adverse CNS side effects
peripheral neuropathy and convulsions [4]: peripheral neuropathy effects and convolusions in mice
CNS toxicity, use in humans ([4]; use in humans): limiting factor for their use in humans
